In patent US20230146795A1, “ENHANCEMENT OF ANTI-TUMOR ACTIVITY OF SHP2 INHIBITOR PYRIMIDINONE IN COMBINATION WITH NOVEL CANCER MEDICINES IN CANCERS” (TAIHO PHARMACEUTICAL CO., LTD., priority 2020, published 2023):

Columns and labels:
Format in all cases: cell-based
NCI-H358 = experiment: Anti-proliferation assay (CellTiter-Glo 2.0), combination index, NCI-H358
Procedure: (§1) Cell lines were obtained from ATCC or Health Science Research Resources Bank.
(§2) Each cell lines were collected by ordinary method, then suspended in indicated medium containing 10% fetal bovine serum in table 3. The number of cells seeded per well was set to 500 cells/20 μL. […] The concentration of each anti-cancer reagents set to 8 concentrations including 0 nM. After adding the medicine to the cells, the cells were further incubated at 37° C. for 3 days under 5% CO2. Cell survival rates were calculated by adding 20 μL of CellTiter-Glo(registered trademark) 2. 0 (Promega) solution to each well, incubating the cells at room temperature for 10 minutes, and then measuring the chemiluminescence intensity of each well using a plate reader (ARVO).
(§3) A combination index (CI) value at each combined concentration of the medicines was determined.

RT4 = experiment: Anti-proliferation assay (CellTiter-Glo 2.0), combination index, RT4
Procedure: as §1, §2, §3

MV-4-11 = experiment: Anti-proliferation assay (CellTiter-Glo 2.0), combination index, MV-4-11
Procedure: as §1
(§4) 384 well culture plate (781086, Greiner Bio-One International) was used for cell survival rate measurement assay. Each cell lines were collected by ordinary method, then suspended in indicated medium containing 10% fetal bovine serum in table 3. The number of cells seeded per well was set to 500 cells/20 μL. After incubation at 37° C. for 24 hours under 5% CO2, Compound 1 and additional compound having an antitumor effect or a vehicle (DMSO) was added to each well by using D300e Digital Dispenser (Tecan). The concentration of Compound 1 was set to 10 concentrations. The concentration of each anti-cancer reagents set to 8 concentrations including 0 nM. After adding the medicine to the cells, the cells were further incubated at 37° C. for 3 days under 5% CO2. Cell survival rates were calculated by adding 20 μL of CellTiter-Glo(registered trademark) 2. 0 (Promega) solution to each well, incubating the cells at room temperature for 10 minutes, and then measuring the chemiluminescence intensity of each well using a plate reader (ARVO).
as §3

RMG-I = experiment: Anti-proliferation assay (CellTiter-Glo 2.0), combination index, RMG-I
Procedure: as §1, §4, §3

MKN45 = experiment: Anti-proliferation assay (CellTiter-Glo 2.0), combination index, MKN45
Procedure: as §1, §2, §3

[1] = Compound 1 4.57 + combination drug 41.2 nmol/L (1:9)
[2] = Compound 1 13.7 + combination drug 123 nmol/L (1:9)
[3] = Compound 1 41.2 + combination drug 370 nmol/L (1:9)
[4] = Compound 1 123 + combination drug 1110 nmol/L (1:9)
[5] = Compound 1 370 + combination drug 3330 nmol/L (1:9)
[6] = Compound 1 1110 + combination drug 10000 nmol/L (1:9)
[7] = Compound 1 4.57 + combination drug 370 nmol/L (1:81)
[8] = Compound 1 13.7 + combination drug 1110 nmol/L (1:81)
[9] = Compound 1 41.2 + combination drug 3330 nmol/L (1:81)
[10] = Compound 1 123 + combination drug 10000 nmol/L (1:81)
[11] = Compound 1:combination drug molar ratio 1:81
[12] = Compound 1 1.52 + combination drug 123 nmol/L (1:81)
[13] = Compound 1 13.7 + combination drug 370 nmol/L (1:27)
[14] = Compound 1 41.2 + combination drug 1110 nmol/L (1:27)
[15] = Compound 1 123 + combination drug 3330 nmol/L (1:27)
[16] = Compound 1 370 + combination drug 10000 nmol/L (1:27)
[17] = Compound 1:combination drug molar ratio 1:27
[18] = Compound 1 13.7 + combination drug 13.7 nmol/L (1:1)
[19] = Compound 1 41.2 + combination drug 41.2 nmol/L (1:1)
[20] = Compound 1 123 + combination drug 123 nmol/L (1:1)
[21] = Compound 1:combination drug molar ratio 1:9
[22] = Compound 1 123 + combination drug 370 nmol/L (1:3)
[23] = Compound 1 370 + combination drug 1110 nmol/L (1:3)
[24] = Compound 1 370 + combination drug 370 nmol/L (1:1)
[25] = Compound 1 1110 + combination drug 1110 nmol/L (1:1)
[26] = Compound 1 3330 + combination drug 3330 nmol/L (1:1)
[27] = Compound 1 10000 + combination drug 10000 nmol/L (1:1)

C#Cc1cccc(Nc2ncnc3cc(OCCOC)c(OCCOC)cc23)c1 [Erlotinib]
CI (NCI-H358; [1]): 0.617 | Fa (NCI-H358; [1]): 0.1600 | CI (NCI-H358; [2]): 0.145 | Fa (NCI-H358; [2]): 0.3804 | CI (NCI-H358; [3]): 0.102 | Fa (NCI-H358; [3]): 0.5542 | CI (NCI-H358; [4]): 0.206 | Fa (NCI-H358; [4]): 0.6026 | CI (NCI-H358; [5]): 0.256 | Fa (NCI-H358; [5]): 0.7034 | CI (NCI-H358; [6]): 0.225 | Fa (NCI-H358; [6]): 0.8178 | CI (RT4; [7]): 0.421 | Fa (RT4; [7]): 0.2843 | CI (RT4; [8]): 0.464 | Fa (RT4; [8]): 0.4079 | CI (RT4; [9]): 0.441 | Fa (RT4; [9]): 0.5677 | CI (RT4; [10]): 0.308 | Fa (RT4; [10]): 0.7514 | Description (combinatory effect by CI) (RT4; [11]): Synergy (0.3-0.7) | CI (MV-4-11; [12]): 0.808 | Fa (MV-4-11; [12]): 0.0915 | CI (MV-4-11; [7]): 0.880 | Fa (MV-4-11; [7]): 0.2460 | CI (MV-4-11; [8]): 0.610 | Fa (MV-4-11; [8]): 0.6556 | CI (MV-4-11; [9]): 0.632 | Fa (MV-4-11; [9]): 0.8799 | CI (MV-4-11; [10]): 0.962 | Fa (MV-4-11; [10]): 0.9472 | Description (combinatory effect by CI) (MV-4-11; [11]): Synergy (0.3-0.7)

CC1(C)CCC(CN2CCN(c3ccc(C(=O)NS(=O)(=O)c4ccc(NCC5CCOCC5)c([N+](=O)[O-])c4)c(Oc4cnc5[nH]ccc5c4)c3)CC2)=C(c2ccc(Cl)cc2)C1 [Venetoclax]
CI (RT4; [13]): 0.479 | Fa (RT4; [13]): 0.1751 | CI (RT4; [14]): 0.497 | Fa (RT4; [14]): 0.3605 | CI (RT4; [15]): 0.888 | Fa (RT4; [15]): 0.5099 | CI (RT4; [16]): 0.888 | Fa (RT4; [16]): 0.8781 | Description (combinatory effect by CI) (RT4; [17]): Synergy (0.3-0.7) | CI (MV-4-11; [18]): 0.424 | Fa (MV-4-11; [18]): 0.7436 | CI (MV-4-11; [19]): 0.080 | Fa (MV-4-11; [19]): 0.9696 | CI (MV-4-11; [20]): 0.007 | Fa (MV-4-11; [20]): 0.9987 | CI (RMG-I; [4]): 0.687 | Fa (RMG-I; [4]): 0.4133 | CI (RMG-I; [5]): 0.601 | Fa (RMG-I; [5]): 0.5921 | CI (RMG-I; [6]): 0.668 | Fa (RMG-I; [6]): 0.9240 | Description (combinatory effect by CI) (RMG-I; [21]): Synergy (0.3-0.7)

CC[C@H](Nc1ncnc2[nH]cnc12)c1nc2cccc(F)c2c(=O)n1-c1ccccc1 [Idelalisib]
CI (MV-4-11; [12]): 0.301 | Fa (MV-4-11; [12]): 0.2988 | CI (MV-4-11; [7]): 0.600 | Fa (MV-4-11; [7]): 0.3705 | CI (MV-4-11; [8]): 0.330 | Fa (MV-4-11; [8]): 0.7136 | CI (MV-4-11; [9]): 0.262 | Fa (MV-4-11; [9]): 0.8924 | CI (MV-4-11; [10]): 0.273 | Fa (MV-4-11; [10]): 0.9566 | CI (RMG-I; [12]): 0.778 | Fa (RMG-I; [12]): 0.0902 | CI (RMG-I; [8]): 0.511 | Fa (RMG-I; [8]): 0.2747 | CI (RMG-I; [9]): 0.333 | Fa (RMG-I; [9]): 0.5012 | CI (RMG-I; [10]): 0.570 | Fa (RMG-I; [10]): 0.6059 | Description (combinatory effect by CI) (RMG-I; [11]): Synergy (0.3-0.7)

COc1cc2c(Nc3ccc(Br)cc3F)ncnc2cc1OCC1CCN(C)CC1 [Vandetanib]
CI (NCI-H358; [3]): 0.322 | Fa (NCI-H358; [3]): 0.2982 | CI (NCI-H358; [4]): 0.300 | Fa (NCI-H358; [4]): 0.5211 | CI (NCI-H358; [5]): 0.589 | Fa (NCI-H358; [5]): 0.6208 | CI (NCI-H358; [6]): 0.733 | Fa (NCI-H358; [6]): 0.8142 | Description (combinatory effect by CI) (NCI-H358; [21]): Synergy (0.3-0.7) | CI (RT4; [13]): 0.486 | Fa (RT4; [13]): 0.3118 | CI (RT4; [14]): 0.444 | Fa (RT4; [14]): 0.5143 | CI (RT4; [15]): 0.570 | Fa (RT4; [15]): 0.6645 | CI (RT4; [16]): 0.541 | Fa (RT4; [16]): 0.8261 | Description (combinatory effect by CI) (RT4; [17]): Synergy (0.3-0.7) | CI (MV-4-11; [7]): 0.912 | Fa (MV-4-11; [7]): 0.5454 | CI (MV-4-11; [8]): 0.557 | Fa (MV-4-11; [8]): 0.8322 | CI (MV-4-11; [9]): 0.503 | Fa (MV-4-11; [9]): 0.9448 | CI (MV-4-11; [10]): 0.294 | Fa (MV-4-11; [10]): 0.9916 | CI (RMG-I; [3]): 0.428 | Fa (RMG-I; [3]): 0.4951 | CI (RMG-I; [4]): 0.938 | Fa (RMG-I; [4]): 0.5602 | Description (combinatory effect by CI) (RMG-I; [21]): Synergy (0.3-0.7)

CC(C)Nc1cc(-c2c[nH]c(C(=O)N[C@H](CO)c3cccc(Cl)c3)c2)c(Cl)cn1 [Ulixertinib]
CI (MKN45; [22]): 0.483 | Fa (MKN45; [22]): 0.5887 | CI (MKN45; [23]): 0.644 | Fa (MKN45; [23]): 0.7816 | Description (combinatory effect by CI) (MKN45; Compound 1:combination drug molar ratio 1:3): Synergy (0.3-0.7) | CI (NCI-H358; [20]): 0.709 | Fa (NCI-H358; [20]): 0.2823 | CI (NCI-H358; [24]): 0.379 | Fa (NCI-H358; [24]): 0.5072 | CI (NCI-H358; [25]): 0.237 | Fa (NCI-H358; [25]): 0.7490 | CI (NCI-H358; [26]): 0.260 | Fa (NCI-H358; [26]): 0.8778 | CI (NCI-H358; [27]): 0.284 | Fa (NCI-H358; [27]): 0.9536 | CI (RT4; [2]): 0.759 | Fa (RT4; [2]): 0.1321 | CI (RT4; [3]): 0.310 | Fa (RT4; [3]): 0.3352 | CI (RT4; [4]): 0.330 | Fa (RT4; [4]): 0.4921 | CI (RT4; [5]): 0.622 | Fa (RT4; [5]): 0.5670 | Description (combinatory effect by CI) (RT4; [21]): Synergy (0.3-0.7)
